According to article PMC11814485, “Screening of homing and tissue-penetrating peptides by microdialysis and in vivo phage display” (Life Science Alliance, 2025):

Columns and labels:
[1] = test system: day 7 skin wound; assay: In vivo playoff of custom-made phage library with microdialysis recovery and HTS in rat skin wound model; settings: for Liver Count: HTS reads in liver after 1 h circulation and perfusion; for Wound without probe Count: HTS reads in wound tissue after 1 h circulation and perfusion; for Normal skin microdialysate Count / Wound microdialysate Count: HTS reads; for Normal skin microdialysate Count: probe under normal skin; for Normal skin microdialysate Count / Wound microdialysate Count / Wound microdialysate %: dialysate collected 1 h; for Wound microdialysate Count / Wound microdialysate %: rat; for Wound microdialysate Count: i.v. tail vein, 3-MDa probe under day 7 wound; for Liver %: share of HTS reads in liver after 1 h circulation and perfusion; for Wound without probe %: share of HTS reads in wound tissue after 1 h circulation and perfusion; for Wound microdialysate %: share of HTS reads, i.v.
Procedure: We next tested the applicability of the microdialysis-based system for extravascular phage recovery in the rat wound model. In the initial proof-of-concept studies, we used an in vivo “playoff” approach that allows parallel auditioning of the performance of peptide phages in low-complexity mixtures ([Pleiko et al, 2021]). Wound-bearing rats were dosed with a pool of phages displaying peptides known to home to angiogenic vessels and penetrate tissues, CAR (amino acid sequence CARSKNKDC) and iRGD (CRGDKGPDC). The CAR peptide uses a heparan sulfate proteoglycan (syndecan-4)–dependent pathway for the wound homing and penetration ([Järvinen & Ruoslahti, 2007], [2010]; [Maldonado et al, 2023]), whereas iRGD first homes to αv integrins in angiogenic vasculature followed by proteolytic cleavage of the peptide and binging to neuropilin-1, which activates a trans-tissue transport pathway, the CendR pathway ([Sugahara et al, 2009], [2010]; [Teesalu et al, 2009]). […] Peptides lacking tissue-penetrating properties were included as controls. The CRK (CRKDKC) peptide homes to angiogenic blood vessels, but remains bound to the blood vessels ([Järvinen & Ruoslahti, 2007]; [Agemy et al, 2010]). The test pool also included peptide phage clones identified during an in vivo phage display screen for peptides homing to skin wounds but not selected for further analysis at that time ([Järvinen & Ruoslahti, 2007]). As negative controls, we included phages from a naïve peptide phage library that display random peptides.
Microdialysis probes with 3-MDa cutoff were implanted under the center of a day 7 skin wound (peak of angiogenesis) in rats, or under normal skin (Fig S2). Care was taken not to rupture blood vessels during the probe insertion, and a proper probe location was confirmed at the end of the experiment. After insertion, the microdialysis device was run for 45 min to allow the local flow inside the catheter to be established (manufacturer’s recommendation) ([Joukhadar & Müller, 2005]; [Chaurasia et al, 2007]), followed by intravenous injection of the phage cocktail, and sampling of wound and control dialysates for 60 min. Subsequently, the animals were perfused to remove free phages, and wounds and control organs were collected for further analysis. […] No phages (including CAR and iRGD phages) were detected in the dialysates placed in the intact normal skin (Table 1).
The custom-made phage library for the in vivo validation was cloned on T7 415-1 backbone, grown in BL21 E. coli strain, and filter-sterilized. The phages were either cloned as described previously or picked randomly from a phage library ([Järvinen & Ruoslahti, 2007]; [Teesalu et al, 2009]; [Pemmari et al, 2020a]). Each phage clone was sequenced. The custom-made library was made by mixing an equal amount of each phage (titer 5 × 10^9).
(§1) For the in vivo microdialysis, CMA 402 Syringe Pump with Hamilton syringes was used to push and the Harvard P70 peristaltic pump (Harvard Apparatus) to pull the CMA perfusion fluid (CMA Microdialysis AB) and dialysate. Each of the CMA 402 two outputs was connected to the inlet spike of the CMA 12 custom-made 3-MDa probe (CMA Microdialysis AB) via CMA FEP tubing (CMA Microdialysis AB), and the outlet spike of the CMA 12 probe was further connected to Harvard P70 peristaltic pump and further to CMA Probe Shaft Clip (CMA Microdialysis AB) via CMA connector tubing (CMA Microdialysis AB). From the CMA Probe Shaft Clip, the dialysate was pumped into CMA sample tubes (CMA Microdialysis AB). Harvard 0.19-mm-diameter tubing (Harvard Apparatus) and Harvard 3 collar 1.52-mm tubing (Harvard Apparatus) were used with the Harvard P70 peristaltic pump. In addition, CMA tubing adaptors (CMA Microdialysis AB) were used for connecting tubes to syringes and probes. The system was flushed with 70% ethanol before any use.
Male Wistar rats were used for the in vivo validation experiment and the library screen. The rats were 27 wk old and weighed 490 g. […]

[2] = test system: CHO-K cells; assay: Peptide internalization in vitro, confocal imaging, CHO-K cells; type: cell-based, Chinese hamster; settings: FAM-labeled peptide 20 μM, 3 h, 37°C, confocal fluorescence imaging, representative of three experiments
Procedure: Figure 1. Microdialysis-captured peptides penetrate the cell membrane. […] CHO-K cells were grown on chamber slides. […] The scale bar is 20 μm. Images are representative of three individual experiments.
Plain growth medium was used as a negative control.

[3] = test system: day 7 skin wounds; assay: In vivo phage display screen of naive CX7C T7 library using microdialysis and HTS; set-up: species or system rat; settings: for Total counts / First hour (counts) / Second hour (counts): wound microdialysate; for Total counts: first 2 h; for First hour (counts): first hour after library injection, rat 7-d-old wound; for First hour (counts) / Second hour (counts): Ion Torrent HTS; for Second hour (counts): second hour after library injection
Source text: We next adopted microdialysis-based biopanning to identify new wound-penetrating peptides. We used a CX7^trinucC peptide T7 phage library (diversity 3.9 × 10^8) in which random amino acids are encoded by equally represented trinucleotides to prevent codon bias ([Pleiko et al, 2021]). The library was cloned into the genome of the T7 bacteriophage engineered for longer circulation half-life and reduced liver uptake ([Hodyra-Stefaniak et al, 2019]). For biopanning, 3.9 × 10^10 phages (∼100 copies of each phage clone) displaying the C7X^trinucC library were injected in the tail vein of rats with day 7 skin wounds. Microdialysates were collected from probes placed in wounds or normal skin (Table S1). Most of the phage recovery at the microdialysis probe happened during the first 2 h after library dosing. The wound dialysates yielded almost all phages introduced into the two microdialysis probes, only one phage clone was recovered from normal skin dialysate (Table S1). We observed that most of the peptide phage clones appeared in the microdialysate during the first 2 h after phage dosing (Table S1). To obtain representative tissue biodistribution of phage clones in relation to dialysates, the skin wound–bearing rats with no inserted dialysis probes were dosed with the naïve CX7^trinucC peptide library, followed by 30-min circulation, perfusion, collection of organs, and analysis of peptide landscapes. The two dialysates collected during the first 2 h were subjected to HTS (Table S2). Whole tissue samples from the wound with and without the probe (1 + 5 wounds) at 30 min and 5 h, as well as control samples from 14 different tissues (2 × 14) and from normal skin (1 x with and 2 x without probe), and two serum samples at the time of euthanasia (30 min and 5 h after the library injection) were subjected to HTS. […] However, the wound microdialysates contained 13 enriched peptide sequences (Table 2). […] A BLAST analysis on candidate peptide sequences was used to scan for sequence homologies with proteins related to angiogenesis, endocytosis, and wound healing (Table S3).
The phage library used in the in vivo screen with the microdialysis probe was in the 10-3b T7 backbone (5–15 peptide copies per phage), grown in BLT5403 E. coli strain, CsCl-purified, dialyzed in PBS, and filter-sterilized. The library was constructed via trinucleotide synthesis to prevent bias in the amount of different amino acids ([Kayushin et al, 1996]). The diversity of the library was 1 × 10^9 and the titer 5 × 10^10 per ml.
as §1
Male Wistar rats were used for the in vivo validation experiment and the library screen. The rats were 27 wk old and weighed 490 g. Two full-thickness circular wounds were created on a shaved and disinfected skin with a 12-mm-diameter biopsy punch and scissors under sevoflurane anesthesia (Sevoflurane Baxter, Baxter SA) and carprofen analgesia ([…]; Norocarp, Norbrook Laboratories). […]

Substance | Liver Count [1] | Wound without probe Count [1] | Normal skin microdialysate Count [1] | Wound microdialysate Count [1] | Liver % [1] [%] | Wound without probe % [1] [%] | Wound microdialysate % [1] [%] | cellular uptake in CHO-K cells [2] | Total counts [3] [counts] | First hour (counts) [3] [counts] | Second hour (counts) [3] [counts] | detection in skin wound tissue samples ([3]; HTS of whole wound tissue samples)
CAELNDGLC [T7 phage clone of the custom-made library] | 1,851 | 1,082 | 0 | 0 | 0.70 | 4.98 | 0 |  |  |  |  | 
CARSKNKDC [CARSKNKDC (CAR), T7 phage clone displaying known wound-homing, tissue-penetrating peptide CAR] | 29,894 | 1,614 | 0 | 17,713 | 11.34 | 7.43 | 94.74 |  |  |  |  | 
CARSKNKDC [FAM-labeled synthetic CAR peptide (…), known cell- and tissue-penetrating homing peptide, reference compound] |  |  |  |  |  |  |  | accumulate in the CHO-K cells |  |  |  | 
CDDYQQISC |  |  |  |  |  |  |  |  | 21 | 10 | 11 | 
CERESTKIC [T7 phage clone of the custom-made library] | 93,283 | 3,133 | 0 | 0 | 35.39 | 14.42 | 0 |  |  |  |  | 
CFCQLMYQC |  |  |  |  |  |  |  |  | 13 | 8 | 5 | 
CKKNEINNC |  |  |  |  |  |  |  |  | 16 | 6 | 10 | found in one skin wound sample
CKMLYEYHC |  |  |  |  |  |  |  |  | 18 | 1 | 17 | 
CKSVKNREC [T7 phage clone of the custom-made library] | 108,554 | 14,429 | 2,473 | 0 | 41.18 | 66.39 | 0 |  |  |  |  | 
CLLGKNNSC [T7 phage clone of the custom-made library] | 785 | 0 | 0 | 0 | 0.30 | 0 | 0 |  |  |  |  | 
CLLIYNWSC |  |  |  |  |  |  |  |  | 17 | 14 | 3 | 
CLSQTYRIC |  |  |  |  |  |  |  |  | 21 | 19 | 2 | 
CLTVLSEQC |  |  |  |  |  |  |  |  | 15 | 8 | 7 | 
CNGSALPVC [T7 phage clone of the custom-made library] | 3,300 | 0 | 0 | 0 | 1.25 | 0 | 0 |  |  |  |  | 
CNYLVEKNC |  |  |  |  |  |  |  |  | 23 | 14 | 9 | 
CPKKHHLDC |  |  |  |  |  |  |  |  | 42 | 19 | 23 | 
CRGDKGPDC [CRGDKGPDC (iRGD), T7 phage clone displaying tissue-penetrating homing peptide iRGD] | 8,709 | 1,172 | 0 | 984 | 3.30 | 5.39 | 5.26 |  |  |  |  | 
CRKDKC [CRKDKC (CRK), T7 phage clone displaying CRK peptide, homes to angiogenic vessels, lacks tissue penetration] | 17,235 | 303 | 0 | 0 | 6.54 | 1.39 | 0 |  |  |  |  | 
CRMKFYSEYC |  |  |  |  |  |  |  |  | 11 | 2 | 9 | 
CYHDTYPNC |  |  |  |  |  |  |  |  | 28 | 14 | 14 | 
CYWEDKNLC |  |  |  |  |  |  |  |  | 15 | 6 | 9 | 
